{
  "source": "patent US20250304916A1",
  "about": "“METHODS AND COMPOSITIONS FOR GENERATING VASCULAR LEPTOMENINGEAL CELLS” (Trailhead Biosystems Inc., priority 2024, published 2025)",
  "assay_type_in_all_cases": "cell-based, human",
  "key": {"[1]": {"tested_on": "PDGFRA expression", "assay": "HD-DoE 8-factor modeling experiment (stage 3), model optimized for maximum expression of PDGFRA", "settings": "FIG. 2; for factor contribution, negative impact on PDGFRA expression: model optimized for maximum expression of PDGFRA; for factor contribution, positive impact on PDGFRA expression: model optimized for maximum expression of PDGFRA at 853", "protocol": "(§1) To engineer the recipe of stage 3 of differentiation, cells were first cultured in stage 1 and stage 2 media (described in detail in US Publications 2022/0315891 and 2024/0043798). Then, 48 or 96 different combinations of effectors generated using HD-DoE compression through D-optimality were robotically prepared. The effector combinations were prepared in a basal media and were subsequently added to the cells, which were then allowed to differentiate. 3 days later RNA extraction was performed, and gene expression was obtained using quantitative PCR analysis. The data was normalized and modeled using partial least squares regression analysis to the effector design, resulting in the generation of gene-specific models, which after model tuning for maximal predictive power, provided explanation of the effectors ability to control the expression of individual genes, combinatorically, and individually. Solutions within the tested space were then further explored to address desirability.\n(§2) In one 8-factor modeling experiment, the individual and combinatorial effect of CHIR99021 (a WNT pathway agonist), AGN193109 (an RA pathway antagonist), FGF-2 (FGFR pathway agonist), Purmorphamine (a SHH pathway agonist), TTNPB (an RA pathway agonist), IGF-1 (an IGF-1 pathway agonist), MHY1485 (a mTOR pathway agonist), and Sc79 (an Akt pathway agonist), on further differentiation of cells were tested. […] Sc79 had the highest negative impact on its expression with factor contribution of 30.\nThe highest positive contribution was from Purmorphamine with factor contribution of 21 and IGF-1 with factor contribution of 11. MHY1485 and AGN193109 had the highest negative impact with factor contribution of 21 and 23, respectively (FIG. 2). […] When the model was optimized, expression levels were observed of NKX2-2 at 1200, OLIG1 at 550, OLIG2 at 1000, PDGFRA at 500, SOX8 at 70, and SOX10 at 35 (FIG. 4)."}, "[2]": {"tested_on": "SOX10 expression", "assay": "HD-DoE 8-factor modeling experiment (stage 3), model optimized for maximum expression of SOX10, qPCR gene expression", "settings": "for effect on expression of SOX10 (dynamic profile): model optimized for maximal SOX10 expression, FIG. 4; for factor contribution, positive regulatory effect on SOX10 expression: model optimized for maximum expression of SOX10 at 40", "protocol": "as §1, §2"}, "[3]": {"tested_on": "SOX8 expression", "assay": "HD-DoE 8-factor modeling experiment (stage 3), model optimized for maximal expression of SOX8", "settings": "FIG. 3", "protocol": "as §1\nIn one 8-factor modeling experiment, the individual and combinatorial effect of CHIR99021 (a WNT pathway agonist), AGN193109 (an RA pathway antagonist), FGF-2 (FGFR pathway agonist), Purmorphamine (a SHH pathway agonist), TTNPB (an RA pathway agonist), IGF-1 (an IGF-1 pathway agonist), MHY1485 (a mTOR pathway agonist), and Sc79 (an Akt pathway agonist), on further differentiation of cells were tested. […]"}, "[4]": {"tested_on": "OLIG1 and NKX2-2 expression", "assay": "HD-DoE 12-factor modeling experiment (stage 3), models optimized for maximal expression of OLIG1 and NKX2-2 simultaneously", "settings": "FIG. 5; for factor contribution, positive effect on upregulation of OLIG1 and NKX2-2: models optimized for OLIG1 (192) and NKX2-2 (486) simultaneously", "protocol": "as §1\nAnother 12-factor modeling experiment was performed to study the effect of additional factors on expression level of target genes at stage 3. In this experiment, Activin A, Linoleic acid (a polyunsaturated fatty acid), DBZ (GSI-XX) (a NOTCH pathway inhibitor), ZM336372 (a c-Raf inhibitor), AZD3147 (a mTOR pathway inhibitor), PDGF-AA (a PDGF pathway agonist) and MK2206 (an Akt pathway inhibitor), along with AGN193109, TTNPB, FGF2, IGF-1, and MHY1485, were tested. According to literature, proteins such as FGF-2, IGF-1, and PDGF-AA play an important role in oligodendrocyte differentiation (Goldman and Kuypers (2015) Development 142:3983-95). Models were optimized for maximal expression of OLIG1 with expression level of 192 and NKX2-2 with expression level of 486 simultaneously. […] MK2206 with factor contribution of 19 had the highest negative impact on expression of these genes. […] To confirm the impact of identified factors on a bigger scale, the expression profile of a larger group of genes defining late oligodendrocyte progenitor population (Perlman et al. (2020) Glia 68:1291-1303; Goldman and Kuypers (2015) Development 142:3983-95; van Tilborg et al. (2018) Glia 66:221-238) was investigated. At maximal expression of OLIG1 and NKX2-2, other desired genes such as CNP, IGFBP2, MYC, and MYT-1 were highly expressed, while neuronal genes, NEUROD1, NEUROG1, and NEUROG2 had expression levels less than 30."}, "[5]": {"tested_on": "MBP expression", "assay": "HD-DoE 8-factor model (stage 4), optimized for maximum expression of MBP", "settings": "model optimized for MBP at 274; FIG. 6"}},
  "note": "Where “and” joins values, the source holds several entries; their conditions need not be identical. Equal values may be shown once.",
  "data": [
    {"molecule": "Cc1ccc(C2=CCC(C)(C)c3ccc(C#Cc4ccc(C(=O)O)cc4)cc32)cc1", "note": "[AGN193109]", "values": [
      {"measurement": "factor contribution, negative impact on PDGFRA expression", "setting": "[1]", "result": 23}
    ]},
    {"molecule": "Cc1c[nH]c(-c2cnc(NCCNc3ccc(C#N)cn3)nc2-c2ccc(Cl)cc2Cl)n1", "note": "[CHIR99021]", "values": [
      {"measurement": "effect on expression of SOX10 (dynamic profile)", "setting": "[2]", "result": "positive effect"},
      {"measurement": "factor contribution, positive regulatory effect on SOX10 expression", "setting": "[2]; FIG. 1", "result": 8},
      {"measurement": "factor contribution, positive impact on PDGFRA expression", "setting": "[1]", "result": 8}
    ]},
    {"molecule": "O=[N+]([O-])c1ccc(Nc2nc(N3CCOCC3)nc(N3CCOCC3)n2)cc1", "note": "[MHY1485]", "values": [
      {"measurement": "factor contribution, negative impact on PDGFRA expression", "setting": "[1]", "result": 21},
      {"measurement": "factor contribution, positive effect on SOX8 expression", "setting": "[3]", "result": "13 and 13.2"}
    ]},
    {"molecule": "NC1(c2ccc(-c3nc4ccn5c(=O)[nH]nc5c4cc3-c3ccccc3)cc2)CCC1", "note": "[MK2206]", "values": [
      {"measurement": "factor contribution, negative impact on expression of OLIG1 and NKX2-2", "setting": "[4]; models optimized for OLIG1 and NKX2-2 simultaneously", "result": 19}
    ]},
    {"molecule": "c1ccc2c(Oc3nc(Nc4ccc(N5CCOCC5)cc4)c4ncn(C5CCCCC5)c4n3)cccc2c1", "note": "[Purmorphamine]", "values": [
      {"measurement": "factor contribution, positive impact on PDGFRA expression", "setting": "[1]", "result": "21 and 20.6"}
    ]},
    {"molecule": "CCOC(=O)C1=C(N)Oc2ccc(Cl)cc2C1C(C#N)C(=O)OCC", "note": "(centres unmarked) [Sc79]", "values": [
      {"measurement": "factor contribution, negative impact on SOX10 expression", "setting": "[2]; model optimized for maximum expression of SOX10, FIG. 1", "result": 30}
    ]},
    {"molecule": "N[C@@H](Cc1cc(I)c(Oc2ccc(O)c(I)c2)c(I)c1)C(=O)O", "note": "[T3]", "values": [
      {"measurement": "factor contribution, positive impact on MBP expression", "setting": "[5]", "result": 18.1}
    ]},
    {"molecule": "C/C(=C\\c1ccc(C(=O)O)cc1)c1ccc2c(c1)C(C)(C)CCC2(C)C", "note": "[TTNPB]", "values": [
      {"measurement": "effect on expression of SOX10 (dynamic profile)", "setting": "[2]", "result": "positive effect"},
      {"measurement": "factor contribution, positive regulatory effect on SOX10 expression", "setting": "[2]; FIG. 1", "result": 18},
      {"measurement": "factor contribution, positive impact on PDGFRA expression", "setting": "[1]", "result": 0.6}
    ]},
    {"molecule": "CCCCC/C=C\\C/C=C\\CCCCCCCC(=O)O", "note": "[linoleic acid]", "values": [
      {"measurement": "factor contribution, positive effect on upregulation of OLIG1 and NKX2-2", "setting": "[4]", "result": 12}
    ]},
    {"molecule": "Dibenzazepine [DBZ]", "values": [
      {"measurement": "factor contribution, positive impact on MBP expression", "setting": "[5]", "result": 18.1},
      {"measurement": "factor contribution, positive effect on upregulation of OLIG1 and NKX2-2", "setting": "[4]", "result": 13},
      {"measurement": "factor contribution, positive effect on upregulation of OLIG1 and NKX2-2", "setting": "[4]; listed as GSI-XX (DBZ)", "result": 13.2}
    ]},
    {"molecule": "FGF-2: FGFR pathway agonist; naturally occurring ligand", "values": [
      {"measurement": "effect on expression of SOX10 (dynamic profile)", "setting": "[2]", "result": "positive effect"},
      {"measurement": "factor contribution, positive regulatory effect on SOX10 expression", "setting": "[2]; FIG. 1", "result": 15}
    ]},
    {"molecule": "IGF-1: insulin-like growth factor 1; an IGF-1 pathway agonist", "values": [
      {"measurement": "expression level of SOX10 after addition of IGF-1 to the suggested recipe", "setting": "[2]; dynamic profile analysis, decreased from 40 without IGF-1", "result": 35},
      {"measurement": "factor contribution, positive impact on PDGFRA expression", "setting": "[1]", "result": "11 and 11.22"},
      {"measurement": "factor contribution, positive effect on SOX8 expression", "setting": "[3]", "result": "16 and 15.6"}
    ]},
    {"molecule": "PDGF-AA: a PDGF pathway agonist; ligand of a PDGFR", "values": [
      {"measurement": "factor contribution, positive effect on upregulation of OLIG1 and NKX2-2", "setting": "[4]", "result": 21}
    ]}
  ]
}
